Measured values taken from ChEMBL document CHEMBL5291721, “A preclinical secondary pharmacology resource illuminates target-adverse drug reaction associations of marketed drugs” (Nat Commun, 2023).

Columns and labels:
[1] = target: T1, Muscarinic acetylcholine receptor M1 (Homo sapiens, UniProt P11229); assay type: functional, cell-based
T1 sequence (P11229 whole entry): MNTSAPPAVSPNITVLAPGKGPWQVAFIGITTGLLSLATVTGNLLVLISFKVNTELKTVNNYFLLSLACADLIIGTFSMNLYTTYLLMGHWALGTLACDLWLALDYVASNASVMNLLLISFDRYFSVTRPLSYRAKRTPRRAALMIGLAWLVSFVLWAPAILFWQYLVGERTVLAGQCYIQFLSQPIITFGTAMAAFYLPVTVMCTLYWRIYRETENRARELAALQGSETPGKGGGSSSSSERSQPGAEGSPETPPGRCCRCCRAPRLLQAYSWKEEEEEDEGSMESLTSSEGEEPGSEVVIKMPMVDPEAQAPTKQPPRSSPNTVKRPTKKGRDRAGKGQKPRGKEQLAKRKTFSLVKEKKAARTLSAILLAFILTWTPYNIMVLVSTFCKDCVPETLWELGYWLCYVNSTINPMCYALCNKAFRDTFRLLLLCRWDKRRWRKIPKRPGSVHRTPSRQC

[2] = target: T1, Muscarinic acetylcholine receptor M1; assay type: functional, cell-based; remark: listed apart in the source
[3] = target: T2, Muscarinic acetylcholine receptor M2 (Homo sapiens, UniProt P08172); assay type: functional, cell-based
T2 sequence (P08172 whole entry): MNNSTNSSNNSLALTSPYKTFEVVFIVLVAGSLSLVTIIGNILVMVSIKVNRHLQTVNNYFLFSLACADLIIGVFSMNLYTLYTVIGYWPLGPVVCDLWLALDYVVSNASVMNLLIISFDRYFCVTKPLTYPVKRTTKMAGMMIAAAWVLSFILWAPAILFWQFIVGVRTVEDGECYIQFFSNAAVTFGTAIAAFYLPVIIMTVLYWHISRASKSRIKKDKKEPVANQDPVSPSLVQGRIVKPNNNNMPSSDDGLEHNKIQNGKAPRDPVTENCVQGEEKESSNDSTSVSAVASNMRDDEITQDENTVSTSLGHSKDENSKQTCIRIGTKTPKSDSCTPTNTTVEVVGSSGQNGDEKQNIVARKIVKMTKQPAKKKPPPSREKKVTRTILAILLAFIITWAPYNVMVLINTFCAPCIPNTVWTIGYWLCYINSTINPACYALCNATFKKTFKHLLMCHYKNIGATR

[4] = target: T2, Muscarinic acetylcholine receptor M2; assay type: functional, cell-based; remark: listed apart in the source
[5] = target: T3, Gamma-aminobutyric acid receptor subunit alpha-1 (Rattus norvegicus, UniProt P62813)
[6] = target: Sodium-dependent dopamine transporter (Homo sapiens, UniProt Q01959)
[7] = target: cGMP-inhibited 3',5'-cyclic phosphodiesterase 3A (Homo sapiens, UniProt Q14432); assay type: functional
[8] = target: T4, Alpha-1A adrenergic receptor (Homo sapiens, UniProt P35348); assay type: functional, cell-based
T4 sequence (P35348 whole entry): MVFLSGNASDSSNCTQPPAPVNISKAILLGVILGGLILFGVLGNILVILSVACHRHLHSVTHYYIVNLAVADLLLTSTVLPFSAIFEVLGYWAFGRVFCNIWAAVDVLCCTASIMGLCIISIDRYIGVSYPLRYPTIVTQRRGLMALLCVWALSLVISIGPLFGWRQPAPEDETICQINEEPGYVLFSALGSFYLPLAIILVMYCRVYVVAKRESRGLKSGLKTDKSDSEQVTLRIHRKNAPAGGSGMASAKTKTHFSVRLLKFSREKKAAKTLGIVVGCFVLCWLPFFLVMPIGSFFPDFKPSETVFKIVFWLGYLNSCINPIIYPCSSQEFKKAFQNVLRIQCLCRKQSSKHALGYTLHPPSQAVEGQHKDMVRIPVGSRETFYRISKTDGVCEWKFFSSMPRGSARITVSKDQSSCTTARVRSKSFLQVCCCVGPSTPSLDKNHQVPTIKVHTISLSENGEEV

[9] = target: T5, Alpha-2A adrenergic receptor (Homo sapiens, UniProt P08913); assay type: functional, cell-based
T5 sequence (P08913 whole entry): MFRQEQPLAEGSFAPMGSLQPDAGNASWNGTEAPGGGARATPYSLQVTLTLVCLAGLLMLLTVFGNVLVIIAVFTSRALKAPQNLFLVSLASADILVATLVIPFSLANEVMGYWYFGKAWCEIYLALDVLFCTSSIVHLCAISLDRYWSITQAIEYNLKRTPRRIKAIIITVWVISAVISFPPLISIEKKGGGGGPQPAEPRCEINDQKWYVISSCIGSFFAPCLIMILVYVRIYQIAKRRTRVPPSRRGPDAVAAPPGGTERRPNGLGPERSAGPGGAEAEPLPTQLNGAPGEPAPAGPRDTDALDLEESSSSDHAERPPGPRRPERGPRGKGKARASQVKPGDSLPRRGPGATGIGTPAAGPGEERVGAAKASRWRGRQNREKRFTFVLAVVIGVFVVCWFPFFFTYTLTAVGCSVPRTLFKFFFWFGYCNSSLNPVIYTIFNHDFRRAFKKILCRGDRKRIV

D(1A) dopamine receptor = D(1A) dopamine receptor (Homo sapiens, UniProt P21728); assay type: functional, cell-based
[10] = target: T3, Gamma-aminobutyric acid receptor subunit alpha-1; assay type: functional
Histamine H2 receptor = Histamine H2 receptor (Homo sapiens, UniProt P25021); assay type: functional, cell-based
[11] = target: T6, 5-hydroxytryptamine receptor 1A (Homo sapiens, UniProt P08908); assay type: functional, cell-based
T6 sequence (P08908 whole entry): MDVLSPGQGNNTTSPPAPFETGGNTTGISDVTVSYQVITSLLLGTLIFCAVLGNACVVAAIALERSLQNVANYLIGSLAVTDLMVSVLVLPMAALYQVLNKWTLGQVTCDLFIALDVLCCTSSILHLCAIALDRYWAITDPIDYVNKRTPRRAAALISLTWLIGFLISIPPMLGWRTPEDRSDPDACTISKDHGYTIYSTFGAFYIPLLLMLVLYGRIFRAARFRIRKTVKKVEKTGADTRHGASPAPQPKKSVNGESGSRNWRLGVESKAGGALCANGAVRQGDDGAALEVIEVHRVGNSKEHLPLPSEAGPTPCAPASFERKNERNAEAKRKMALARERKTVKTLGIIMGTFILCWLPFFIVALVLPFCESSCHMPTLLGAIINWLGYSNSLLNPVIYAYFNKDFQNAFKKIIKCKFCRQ

[12] = target: 5-hydroxytryptamine receptor 2B (Homo sapiens, UniProt P41595); assay type: functional, cell-based
[13] = target: Delta-type opioid receptor (Homo sapiens, UniProt P41143)
Further: assay procedure not described here.

cGMP-inhibited 3',5'-cyclic phosphodiesterase 3A, sequence (Q14432 whole entry): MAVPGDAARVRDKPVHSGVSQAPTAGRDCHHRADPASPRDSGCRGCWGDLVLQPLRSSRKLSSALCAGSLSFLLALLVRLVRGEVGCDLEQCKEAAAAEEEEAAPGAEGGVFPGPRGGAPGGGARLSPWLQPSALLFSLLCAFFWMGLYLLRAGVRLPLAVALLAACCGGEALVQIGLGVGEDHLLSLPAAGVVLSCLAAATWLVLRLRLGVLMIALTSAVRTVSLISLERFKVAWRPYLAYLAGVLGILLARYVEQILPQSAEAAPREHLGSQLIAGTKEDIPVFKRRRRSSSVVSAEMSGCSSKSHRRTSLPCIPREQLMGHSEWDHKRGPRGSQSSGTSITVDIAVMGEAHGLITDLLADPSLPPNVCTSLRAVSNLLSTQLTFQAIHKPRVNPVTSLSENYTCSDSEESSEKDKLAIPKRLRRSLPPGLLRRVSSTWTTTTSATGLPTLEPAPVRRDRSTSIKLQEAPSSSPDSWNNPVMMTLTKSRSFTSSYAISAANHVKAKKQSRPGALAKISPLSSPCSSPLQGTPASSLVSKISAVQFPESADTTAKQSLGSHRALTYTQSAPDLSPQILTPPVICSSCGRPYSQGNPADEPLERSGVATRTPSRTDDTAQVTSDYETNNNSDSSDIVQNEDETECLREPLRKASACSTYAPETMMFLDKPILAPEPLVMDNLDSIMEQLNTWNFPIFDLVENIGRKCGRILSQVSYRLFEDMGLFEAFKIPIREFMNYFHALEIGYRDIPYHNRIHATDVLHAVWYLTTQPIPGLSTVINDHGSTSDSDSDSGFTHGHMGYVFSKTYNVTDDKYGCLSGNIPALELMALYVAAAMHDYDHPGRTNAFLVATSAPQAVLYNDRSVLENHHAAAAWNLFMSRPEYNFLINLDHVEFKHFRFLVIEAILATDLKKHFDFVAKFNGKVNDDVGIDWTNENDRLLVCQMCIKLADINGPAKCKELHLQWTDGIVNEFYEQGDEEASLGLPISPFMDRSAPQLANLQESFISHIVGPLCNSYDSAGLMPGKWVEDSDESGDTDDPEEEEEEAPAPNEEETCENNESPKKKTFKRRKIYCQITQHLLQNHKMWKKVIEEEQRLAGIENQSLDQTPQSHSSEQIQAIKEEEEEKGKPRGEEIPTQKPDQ
T3 sequence (P62813 whole entry): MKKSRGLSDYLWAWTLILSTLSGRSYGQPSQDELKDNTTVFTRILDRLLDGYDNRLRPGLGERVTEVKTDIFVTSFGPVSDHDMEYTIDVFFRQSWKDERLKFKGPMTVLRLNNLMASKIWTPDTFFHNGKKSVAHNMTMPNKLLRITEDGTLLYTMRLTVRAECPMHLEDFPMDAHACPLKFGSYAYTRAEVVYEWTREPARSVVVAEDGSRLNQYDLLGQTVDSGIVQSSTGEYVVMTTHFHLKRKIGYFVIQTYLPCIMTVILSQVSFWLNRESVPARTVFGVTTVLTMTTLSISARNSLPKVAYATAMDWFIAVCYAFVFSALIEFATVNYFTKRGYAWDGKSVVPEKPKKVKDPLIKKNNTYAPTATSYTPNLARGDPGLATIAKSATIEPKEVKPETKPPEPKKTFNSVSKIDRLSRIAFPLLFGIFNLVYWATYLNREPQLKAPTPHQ
Sodium-dependent dopamine transporter, sequence (Q01959 whole entry): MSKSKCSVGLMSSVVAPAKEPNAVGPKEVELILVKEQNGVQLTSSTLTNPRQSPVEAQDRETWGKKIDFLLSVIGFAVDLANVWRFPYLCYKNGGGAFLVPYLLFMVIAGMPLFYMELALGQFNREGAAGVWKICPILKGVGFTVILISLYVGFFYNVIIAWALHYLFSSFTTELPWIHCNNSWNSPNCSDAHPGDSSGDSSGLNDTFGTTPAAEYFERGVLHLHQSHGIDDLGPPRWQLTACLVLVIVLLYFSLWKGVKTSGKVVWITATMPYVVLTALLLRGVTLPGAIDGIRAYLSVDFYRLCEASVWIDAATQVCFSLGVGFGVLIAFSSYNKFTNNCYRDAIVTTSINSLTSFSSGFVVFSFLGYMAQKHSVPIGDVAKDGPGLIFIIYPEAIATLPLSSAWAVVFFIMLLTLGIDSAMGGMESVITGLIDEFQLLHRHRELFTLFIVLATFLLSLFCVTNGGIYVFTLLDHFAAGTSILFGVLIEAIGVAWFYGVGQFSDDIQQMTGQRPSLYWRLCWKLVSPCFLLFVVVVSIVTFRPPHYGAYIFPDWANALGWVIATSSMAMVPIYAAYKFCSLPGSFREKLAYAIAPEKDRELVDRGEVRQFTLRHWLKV
5-hydroxytryptamine receptor 2B, sequence (P41595 whole entry): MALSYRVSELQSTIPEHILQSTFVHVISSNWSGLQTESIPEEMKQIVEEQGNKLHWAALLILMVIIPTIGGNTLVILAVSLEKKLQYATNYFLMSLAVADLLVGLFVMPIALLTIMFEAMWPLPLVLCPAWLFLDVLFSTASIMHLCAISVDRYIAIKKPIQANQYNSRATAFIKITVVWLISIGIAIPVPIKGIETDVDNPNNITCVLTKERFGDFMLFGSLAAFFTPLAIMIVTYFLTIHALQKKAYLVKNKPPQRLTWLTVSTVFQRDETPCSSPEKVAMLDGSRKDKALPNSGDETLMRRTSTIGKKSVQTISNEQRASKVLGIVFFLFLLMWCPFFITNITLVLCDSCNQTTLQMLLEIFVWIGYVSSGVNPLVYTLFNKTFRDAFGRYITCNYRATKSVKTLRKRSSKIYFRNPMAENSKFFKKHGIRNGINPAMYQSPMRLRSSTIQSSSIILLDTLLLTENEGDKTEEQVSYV
Delta-type opioid receptor, sequence (P41143 whole entry): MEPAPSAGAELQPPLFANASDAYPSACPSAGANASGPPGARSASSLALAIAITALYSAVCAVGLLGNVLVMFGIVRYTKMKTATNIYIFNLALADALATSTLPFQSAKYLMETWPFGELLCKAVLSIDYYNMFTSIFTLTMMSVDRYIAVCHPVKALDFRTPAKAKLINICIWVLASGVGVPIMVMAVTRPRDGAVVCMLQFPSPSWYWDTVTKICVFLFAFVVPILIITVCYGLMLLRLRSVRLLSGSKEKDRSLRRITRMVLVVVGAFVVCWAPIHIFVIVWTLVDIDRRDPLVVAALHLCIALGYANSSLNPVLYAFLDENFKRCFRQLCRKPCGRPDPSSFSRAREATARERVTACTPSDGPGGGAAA
Histamine H2 receptor, sequence (P25021 whole entry): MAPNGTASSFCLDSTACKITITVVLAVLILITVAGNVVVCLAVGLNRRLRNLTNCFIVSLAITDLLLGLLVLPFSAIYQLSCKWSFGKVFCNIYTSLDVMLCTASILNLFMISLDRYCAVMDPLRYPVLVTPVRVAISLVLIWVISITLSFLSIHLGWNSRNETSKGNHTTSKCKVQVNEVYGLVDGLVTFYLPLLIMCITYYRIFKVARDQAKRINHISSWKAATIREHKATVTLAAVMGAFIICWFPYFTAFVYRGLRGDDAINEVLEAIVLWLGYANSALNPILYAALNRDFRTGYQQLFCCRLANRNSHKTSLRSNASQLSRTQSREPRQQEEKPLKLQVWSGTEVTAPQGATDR
D(1A) dopamine receptor, sequence (P21728 whole entry): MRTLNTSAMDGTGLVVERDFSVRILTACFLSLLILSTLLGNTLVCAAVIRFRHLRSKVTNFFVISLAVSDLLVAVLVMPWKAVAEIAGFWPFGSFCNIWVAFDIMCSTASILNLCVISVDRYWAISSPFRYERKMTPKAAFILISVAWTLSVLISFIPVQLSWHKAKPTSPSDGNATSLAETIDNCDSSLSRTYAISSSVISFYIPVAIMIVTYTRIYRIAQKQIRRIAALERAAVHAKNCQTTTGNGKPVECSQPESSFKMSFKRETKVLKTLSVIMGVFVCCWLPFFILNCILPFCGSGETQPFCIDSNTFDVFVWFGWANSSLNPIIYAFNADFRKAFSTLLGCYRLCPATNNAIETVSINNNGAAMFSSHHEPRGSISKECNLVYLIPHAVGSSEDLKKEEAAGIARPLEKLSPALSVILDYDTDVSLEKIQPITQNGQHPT

Compound: O=C(O)c1cccc(-c2noc(-c3ccccc3F)n2)c1
- AC50 [1]: > 30 µM
- AC50 [2]: > 30 µM
- AC50 [3]: > 10 µM
- AC50 [4]: > 10 µM
- AC50 [5]: > 30 µM
- AC50 [6]: > 30 µM
- AC50 [7]: > 30 µM

Compound: Nc1ccc(C(=O)O)cc1 [AMINOBENZOIC ACID]
- AC50 [1]: > 30 µM
- AC50 [2]: > 30 µM
- AC50 [5]: > 30 µM

Compound: CCS(=O)(=O)N1CC(CC#N)(n2cc(-c3ncnc4[nH]ccc34)cn2)C1 [BARICITINIB]
- AC50 [1]: > 30 µM
- AC50 [2]: > 10 µM
- AC50 [5]: > 30 µM

Compound: O=C(O)CCCN1CCC(O[C@@H](c2ccc(Cl)cc2)c2ccccn2)CC1 [BEPOTASTINE]
- AC50 [1]: > 30 µM
- AC50 [2]: > 30 µM
- AC50 [5]: > 30 µM

Compound: CCCCN(CCCC)CCCOC(=O)c1ccc(N)cc1 [BUTACAINE]
- AC50 [1]: > 30 µM
- AC50 [2]: > 30 µM
- AC50 [5]: > 30 µM

Compound: NCc1ccccc1CC(=O)N[C@@H]1C(=O)N2C(C(=O)O)=C(CSc3nnnn3CC(=O)O)CS[C@H]12 [CEFORANIDE]
- AC50 [1]: > 30 µM
- AC50 [2]: > 10 µM
- AC50 [5]: > 30 µM

Compound: NS(=O)(=O)c1cc2c(cc1Cl)NC(C1CC3C=CC1C3)NS2(=O)=O (stereo not given) [CYCLOTHIAZIDE]
- AC50 [1]: > 30 µM
- AC50 [2]: 17.6 µM
- AC50 [5]: > 30 µM

Compound: Nc1nc(-n2cc(C(=O)O)c(=O)c3cc(F)c(N4CC(O)C4)c(Cl)c32)c(F)cc1F [DELAFLOXACIN]
- AC50 [1]: > 30 µM
- AC50 [2]: > 30 µM
- AC50 [5]: > 30 µM

Compound: O=C(Nc1ccccc1)OCC(CN1CCCCC1)OC(=O)Nc1ccccc1 (stereo not given) [DIPERODON]
- AC50 [8]: > 30 µM
- AC50 [9]: > 10 µM
- AC50 [1]: > 30 µM
- AC50 [2]: > 30 µM
- AC50 [3]: > 30 µM
- AC50 [4]: > 30 µM
- AC50 (D(1A) dopamine receptor): > 10 µM
- AC50 [10]: > 10 µM
- AC50 (Histamine H2 receptor): > 10 µM
- AC50 [11]: > 10 µM
- AC50 [12]: > 10 µM
- AC50 [13]: > 10 µM
- AC50 [6]: 6.69 µM
- AC50 [7]: > 10 µM

Compound: CCOC(=O)C(c1c(O)c2ccccc2oc1=O)c1c(O)c2ccccc2oc1=O [ETHYL BISCOUMACETATE]
- AC50 [1]: > 30 µM
- AC50 [2]: > 30 µM
- AC50 [5]: > 30 µM

Compound: Cc1nc(-c2ccc(OCC(C)C)c(C#N)c2)sc1C(=O)O [FEBUXOSTAT]
- AC50 [1]: > 30 µM
- AC50 [2]: 16.1 µM
- AC50 [5]: > 30 µM

Compound: O=C1NCC2(CCN(CCc3ccccc3)CC2)O1 [FENSPIRIDE]
- AC50 [1]: > 30 µM
- AC50 [2]: > 30 µM
- AC50 [5]: 25.2 µM

Compound: C[C@@H]1C[C@H]2[C@@H]3C[C@H](F)C4=CC(=O)C(Cl)=C[C@]4(C)[C@@]3(F)[C@@H](O)C[C@]2(C)[C@@]1(O)C(=O)CO [HALOMETASONE]
- AC50 [1]: > 30 µM
- AC50 [2]: 13.1 µM
- AC50 [5]: > 30 µM

Compound: CS(=O)(=O)Nc1cc2occ(NC=O)c(=O)c2cc1Oc1ccccc1 [IGURATIMOD]
- AC50 [1]: > 30 µM
- AC50 [2]: > 30 µM
- AC50 [12]: > 30 µM
- AC50 [13]: > 30 µM
- AC50 [6]: > 30 µM
- AC50 [7]: > 30 µM

Compound: CCC(Cc1c(I)cc(I)c(N)c1I)C(=O)O (stereo not given) [IOPANOIC ACID]
- AC50 [1]: > 30 µM
- AC50 [2]: 14.5 µM
- AC50 [5]: > 30 µM

Compound: O=C(NC1CCN(CCCCC2(C(=O)NCC(F)(F)F)c3ccccc3-c3ccccc32)CC1)c1ccccc1-c1ccc(C(F)(F)F)cc1 [LOMITAPIDE]
- AC50 [1]: > 30 µM
- AC50 [2]: 3.86 µM
- AC50 [5]: > 30 µM

Compound: CCOC(=O)CC(SP(=S)(OC)OC)C(=O)OCC (stereo not given) [MALATHION]
- AC50 [1]: > 30 µM
- AC50 [2]: 27.1 µM
- AC50 [5]: > 30 µM

Compound: CCC1(c2cccc(O)c2)CCCCN(C)C1 (stereo not given) [MEPTAZINOL]
- AC50 [1]: > 30 µM
- AC50 [2]: > 30 µM
- AC50 [5]: > 30 µM

Compound: C1N2CN3CN1CN(C2)C3 [METHENAMINE]
- AC50 [1]: > 30 µM
- AC50 [2]: > 30 µM
- AC50 [5]: > 30 µM

Compound: O=[N+]([O-])c1cncn1CCN1CCOCC1 [NIMORAZOLE]
- AC50 [1]: > 30 µM
- AC50 [2]: > 30 µM
- AC50 [5]: > 30 µM

Compound: NC(=O)c1cccc2cn(-c3ccc([C@@H]4CCCNC4)cc3)nc12 [NIRAPARIB]
- AC50 [1]: > 30 µM
- AC50 [2]: > 30 µM
- AC50 [5]: > 30 µM

Compound: CC[C@@H]1/C=C(\C)C[C@H](C)C[C@H](OC)[C@H]2O[C@@](O)(C(=O)C(=O)N3CCCC[C@H]3C(=O)O[C@H](/C(C)=C/[C@@H]3CC[C@H](Cl)[C@H](OC)C3)[C@H](C)[C@@H](O)CC1=O)[C@H](C)C[C@@H]2OC [PIMECROLIMUS]
- AC50 [1]: > 30 µM
- AC50 [2]: > 30 µM

Compound: CC(C(=O)O)c1ccc2c(c1)Cc1cccnc1O2 (stereo not given) [PRANOPROFEN]
- AC50 [1]: > 30 µM
- AC50 [2]: > 30 µM

Compound: CN1CCC2=C(C1)c1ccccc1Cc1ccccc12 [SETIPTILINE]
- AC50 [1]: > 30 µM
- AC50 [2]: 8.28 µM

Compound: COc1ccc(CCC(C)NCC(O)c2ccc(O)c([S+](C)[O-])c2)cc1 (stereo not given) [SULFINALOL]
- AC50 [1]: > 30 µM
- AC50 [2]: > 30 µM

Compound: CCC1C(C)=NN=C(c2ccc(OC)c(OC)c2)c2cc(OC)c(OC)cc21 (stereo not given) [TOFISOPAM]
- AC50 [1]: > 30 µM
- AC50 [2]: 25.3 µM
- AC50 [5]: > 30 µM

Compound: COc1cc(NCc2ccc3nc(N)nc(N)c3c2C)cc(OC)c1OC [TRIMETREXATE]
- AC50 [1]: > 30 µM
- AC50 [2]: 12.3 µM
- AC50 [5]: > 30 µM

Compound: C[C@@H]1O[C@@H](OC[C@H]2O[C@@H](Oc3c(-c4ccc(OCCO)c(OCCO)c4)oc4cc(OCCO)cc(O)c4c3=O)[C@H](O)[C@@H](O)[C@@H]2O)[C@H](O)[C@H](O)[C@H]1O [TROXERUTIN]
- AC50 [1]: > 30 µM
- AC50 [2]: > 30 µM

Compound: COc1cc2c(cc1OC)[C@H]1C[C@@H](OC(=O)[C@@H](N)C(C)C)[C@H](CC(C)C)CN1CC2 [VALBENAZINE]
- AC50 [1]: > 30 µM
- AC50 [2]: > 10 µM
- AC50 [5]: > 30 µM
